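Test compounds were applied to cells in 96-well plates for 48 hours at 5 doses. TGI is the concentration that stops growth completely.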
Experiments:
Experiment in all cases: DTP human tumour cell line panel, 48 h
CAKI-1 renal = tested on: CAKI-1 renal
UO-31 renal = tested on: UO-31 renal
HL-60(TB) leukemia = tested on: HL-60(TB) leukemia
U251 CNS = tested on: U251 CNS
ACHN renal = tested on: ACHN renal
DU-145 prostate = tested on: DU-145 prostate
HT29 colon = tested on: HT29 colon
NCI-H23 lung = tested on: NCI-H23 lung
786-0 renal = tested on: 786-0 renal
A498 renal = tested on: A498 renal
PC-3 prostate = tested on: PC-3 prostate
MDA-MB-435 = tested on: MDA-MB-435
SF-539 CNS = tested on: SF-539 CNS
EKVX NSCLC = tested on: EKVX NSCLC
RPMI-8226 leukemia = tested on: RPMI-8226 leukemia
KM12 colon = tested on: KM12 colon
HOP-62 NSCLC = tested on: HOP-62 NSCLC
SF-295 CNS = tested on: SF-295 CNS
HCC-2998 colon = tested on: HCC-2998 colon
SR leukemia = tested on: SR leukemia

Compound | TGI (CAKI-1 renal) [µM] | TGI (UO-31 renal) [µM] | TGI (HL-60(TB) leukemia) [µM] | TGI (U251 CNS) [µM] | TGI (ACHN renal) [µM] | TGI (DU-145 prostate) [µM] | TGI (HT29 colon) [µM] | TGI (NCI-H23 lung) [µM] | TGI (786-0 renal) [µM] | TGI (A498 renal) [µM] | TGI (PC-3 prostate) [µM] | TGI (MDA-MB-435) [µM] | TGI (SF-539 CNS) [µM] | TGI (EKVX NSCLC) [µM] | TGI (RPMI-8226 leukemia) [µM] | TGI (KM12 colon) [µM] | TGI (HOP-62 NSCLC) [µM] | TGI (SF-295 CNS) [µM] | TGI (HCC-2998 colon) [µM] | TGI (SR leukemia) [µM]
CCCC/C=C/C/C=C/CCCCCCCCC(=O)OCC1CCCN2CCCCC12 (configuration not stated) | > 100 | > 100 | > 100 | > 100 | > 100 | > 100 | > 100 | > 100 | > 100 | > 100 | > 100 | > 100 | > 100 | > 100 | > 100 | > 100 | > 100 | > 100 | > 100 | –
CN1CCN(c2ccc3[nH]c(-c4cc(O)c5c(nc(CO)n5C)c4O)nc3n2)CC1 | > 100 | > 100 | 47.2 | 44.2 | > 100 | > 100 | > 100 | > 100 | > 100 | – | > 100 | 48.3 | 44 | 85.8 | > 100 | > 100 | > 100 | > 100 | > 100 | –
O=c1cc(N2CCNCC2)nc2ccccn12 | > 100 | > 100 | > 100 | > 100 | > 100 | > 100 | > 100 | > 100 | > 100 | > 100 | > 100 | > 100 | > 100 | > 100 | > 100 | > 100 | > 100 | > 100 | > 100 | –
O=c1c2ccccc2[nH]c2c(Cl)cc(Cl)c(NC3CCCCC3)c12 | 83.2 | 33.5 | 43.9 | 36.9 | 37.7 | – | 30.6 | 36.8 | > 100 | 43.3 | 60.1 | 43.5 | 57.8 | 76.8 | 85 | 32.4 | 60.8 | > 100 | 89.9 | > 100
O=C(Cn1c2c(c3ccccc31)CCCC2)N1CCCC1 | > 100 | > 100 | > 100 | – | > 100 | – | > 100 | > 100 | > 100 | > 100 | > 100 | > 100 | > 100 | > 100 | > 100 | – | > 100 | > 100 | > 100 | > 100
COc1ccccc1NC(=S)Nc1cc(C)cc(C)n1 | > 100 | > 100 | > 100 | > 100 | > 100 | > 100 | > 100 | > 100 | > 100 | > 100 | > 100 | > 100 | > 100 | > 100 | > 100 | > 100 | > 100 | > 100 | > 100 | –
O=C1NC(=O)C(CCC(=O)c2ccc3ccccc3c2)C(=O)N1 | > 100 | > 100 | > 100 | > 100 | > 100 | – | > 100 | > 100 | > 100 | > 100 | – | – | > 100 | > 100 | – | > 100 | > 100 | > 100 | > 100 | > 100
COc1ccc(/C=C2\CCC(C)C3C2=NN(c2ccccc2)C3c2ccc(OC)c(OC)c2)cc1OC (configuration not stated) | 15.6 | 22.1 | 7.07 | > 100 | 14.6 | 12.7 | 18.3 | 16.9 | 14.5 | 12.3 | 51.6 | > 100 | 7.49 | 6.9 | 4.3 | 6.46 | – | 7.55 | – | –
CC(C)(C)C(=O)OCOP(=O)(OCOC(=O)C(C)(C)C)OCC1OC(n2ccc(=O)[nH]c2=O)C(N=[N+]=[N-])C1O (configuration not stated) | 22.5 | 4.58 | 4.84 | 10.5 | 17.8 | 17.6 | 11.4 | 16.3 | 10.3 | – | 14.1 | 15.5 | 8.88 | 20.6 | 5.22 | 12.8 | 14.5 | 25.4 | 13.4 | –
CCN(CC)CCn1nc(N)c2nc3ccccc3nc21 | > 100 | > 100 | > 100 | > 100 | > 100 | – | > 100 | > 100 | > 100 | > 100 | > 100 | > 100 | > 100 | > 100 | > 100 | > 100 | > 100 | > 100 | > 100 | > 100
O=P1(O)c2ccccc2CCc2ccccc21 | > 100 | > 100 | – | – | – | > 100 | – | > 100 | > 100 | – | > 100 | > 100 | > 100 | > 100 | > 100 | > 100 | > 100 | > 100 | > 100 | –
CO/C(N)=C(\C#N)N=Cc1ccco1 | > 100 | > 100 | > 100 | > 100 | > 100 | > 100 | > 100 | > 100 | > 100 | > 100 | > 100 | > 100 | – | > 100 | > 100 | > 100 | > 100 | > 100 | > 100 | –
O=C(NC12CC3CC(CC(F)(C3)C1)C2)c1ccccc1 | – | > 100 | > 100 | > 100 | > 100 | – | > 100 | > 100 | > 100 | > 100 | – | – | > 100 | > 100 | > 100 | > 100 | > 100 | – | > 100 | –

— PubChem BioAssay (NCI)
